Assay results as given in ChEMBL document CHEMBL5104119, “Miniproteins in medicinal chemistry” (Bioorg Med Chem Lett, 2022).

Legend:
[1] = Antiproliferative activity against human PBMC cells assessed as cell growth inhibition incubated for 10 mins by CFSE staining based flow cytometric analysis; format: toxicity
T-cell line = assay: Immunomodulatory activity in human T cells assessed as inhibition of IL-2 production incubated for 15 mins by FACSCalibur flow cytometry analysis; format: functional, cell-based; conditions: 0.25 h
[2] = target: Neuronal acetylcholine receptor; alpha9/alpha10 (Homo sapiens, UniProt Q9GZZ6+Q9UGM1); assay: Inhibition of human nAChR alpha9alpha10 expressed in Xenopus laevis oocytes holding potential of -70 mV by voltage-clamp based electrophysiological method; format: cell-based
Chain of Neuronal acetylcholine receptor; alpha9/alpha10 (Q9UGM1 whole entry): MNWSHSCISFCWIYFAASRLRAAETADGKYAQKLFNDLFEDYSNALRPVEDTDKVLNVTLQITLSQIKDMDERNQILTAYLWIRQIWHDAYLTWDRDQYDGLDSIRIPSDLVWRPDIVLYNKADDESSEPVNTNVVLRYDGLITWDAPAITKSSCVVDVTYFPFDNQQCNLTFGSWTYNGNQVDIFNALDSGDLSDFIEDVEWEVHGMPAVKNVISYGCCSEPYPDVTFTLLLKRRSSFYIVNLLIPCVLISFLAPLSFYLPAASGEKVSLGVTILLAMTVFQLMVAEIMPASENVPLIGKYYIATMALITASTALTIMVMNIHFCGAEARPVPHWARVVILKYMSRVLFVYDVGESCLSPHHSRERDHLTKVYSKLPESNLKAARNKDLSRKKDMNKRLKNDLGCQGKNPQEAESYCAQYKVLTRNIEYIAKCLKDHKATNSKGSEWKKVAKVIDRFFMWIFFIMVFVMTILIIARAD
Chain of Neuronal acetylcholine receptor; alpha9/alpha10 (Q9GZZ6 whole entry): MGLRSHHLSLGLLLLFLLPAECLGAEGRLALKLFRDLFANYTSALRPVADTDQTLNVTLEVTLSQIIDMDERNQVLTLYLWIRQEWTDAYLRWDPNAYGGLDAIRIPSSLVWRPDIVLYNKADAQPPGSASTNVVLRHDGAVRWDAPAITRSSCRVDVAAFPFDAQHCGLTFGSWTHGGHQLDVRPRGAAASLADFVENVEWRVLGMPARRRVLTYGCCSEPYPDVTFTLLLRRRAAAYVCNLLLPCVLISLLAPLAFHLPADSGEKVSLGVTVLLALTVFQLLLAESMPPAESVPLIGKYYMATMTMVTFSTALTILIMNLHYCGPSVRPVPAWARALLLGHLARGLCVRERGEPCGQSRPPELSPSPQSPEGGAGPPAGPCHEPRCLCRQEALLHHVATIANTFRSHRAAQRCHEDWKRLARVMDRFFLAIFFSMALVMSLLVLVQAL

[3] = tested on: Human immunodeficiency virus; assay: Antiviral activity against HIV infected in human HeLa cells expressing CD4-LTR-beta-gal assessed as inhibition of syncytia formation measured after 15 hrs by 5-bromo-4-chloro-3-indolyl-beta-D-galactoside staining based colorimetry assay; format: functional, organism-based; conditions: Human immunodeficiency virus 1, HeLa
[4] = tested on: Human immunodeficiency virus 1; assay: Antiviral activity against recombinant luciferase-expressing HIV-1 infected in HEK293T cells incubated for 48 hr by luciferase assay based luminometer analysis; format: functional, organism-based; conditions: Human immunodeficiency virus 1, HEK-293T

With `CC(C)C[C@@H]1NC(=O)CNC(=O)[C@H](CC(N)=O)NC(=O)[C@H](CCCNC(=N)N)NC(=O)[C@H]([C@@H](C)O)NC(=O)[C@@H]2CSSC[C@@H]3NC(=O)[C@H]([C@@H](C)O)NC(=O)CNC(=O)CNC(=O)[C@H](C(C)C)NC(=O)[C@@H]4CSSC[C@H](NC(=O)[C@H]([C@@H](C)O)NC(=O)[C@H](CSSC[C@H](NC(=O)[C@H](C(C)C)NC(=O)[C@@H]5CCCN5C1=O)C(=O)NCC(=O)N[C@@H](CCC(=O)O)C(=O)N[C@@H]([C@@H](C)O)C(=O)N4)NC(=O)CNC(=O)[C@@H]1CCCN1C(=O)[C@H]([C@@H](C)O)NC(=O)[C@H](CC(N)=O)NC3=O)C(=O)N[C@@H](CO)C(=O)N[C@@H](Cc1c[nH]c3ccccc13)C(=O)N1CCC[C@H]1C(=O)N[C@@H](C(C)C)C(=O)N2` the IC50 at 10 min [1] was 2900 nM.

`CC(C)C[C@@H]1NC(=O)CNC(=O)[C@H](CC(N)=O)NC(=O)[C@H](CCCNC(=N)N)NC(=O)[C@H]([C@@H](C)O)NC(=O)[C@@H]2CSSC[C@@H]3NC(=O)[C@H]([C@@H](C)O)NC(=O)CNC(=O)CNC(=O)[C@H](C(C)C)NC(=O)[C@@H]4CSSC[C@H](NC(=O)[C@H](CCCCN)NC(=O)[C@H](CSSC[C@H](NC(=O)[C@H](C(C)C)NC(=O)[C@@H]5CCCN5C1=O)C(=O)NCC(=O)N[C@@H](CCC(=O)O)C(=O)N[C@@H]([C@@H](C)O)C(=O)N4)NC(=O)CNC(=O)[C@@H]1CCCN1C(=O)[C@H]([C@@H](C)O)NC(=O)[C@H](CC(N)=O)NC3=O)C(=O)N[C@@H](CO)C(=O)N[C@@H](Cc1c[nH]c3ccccc13)C(=O)N1CCC[C@H]1C(=O)N[C@@H](C(C)C)C(=O)N2` showed an IC50 (T-cell line) of 1900 nM.

For `C[C@@H](O)[C@@H]1NC(=O)[C@@H]2CSSC[C@H](C(=O)N[C@@H](Cc3ccc(O)cc3)C(=O)O)NC(=O)[C@H](CCC(N)=O)NC(=O)[C@H](Cc3ccc(O)c(I)c3)NC(=O)[C@H](CCCNC(=N)N)NC(=O)[C@H](CSSC[C@H](NC(=O)CN)C(=O)N2)NC(=O)[C@H](CCCNC(N)=O)NC(=O)[C@@H]2CCCN2C(=O)[C@H](CC(=O)O)NC1=O`, the IC50 [2] was 1.5 nM.

For Ac-WMEWDREINNYTSLIEESQNQQEKNEQELL-NH2, the IC50 [3] was 0.55 nM and the IC50 [4] was 2.1 nM.
